Test results as given in patent US10004222B2, “Small molecule ice recrystallization inhibitors and methods of use thereof” (THE UNIVERSITY OF OTTAWA, priority 2012, dated 2018).
Values joined by “and” are separate entries in the source; they are usually repeats but may differ in a detail not shown here. Equal entries are not always repeated. “Also recorded” adds a separate entry of the source.

Legend:
[1] = tested on: Tf1-α cells; assay: cryopreservation of Tf1-α cells, viability/apoptosis by flow cytometry (7-AAD, Annexin V); format: cell-based; conditions: for Apoptosis (%) / Cell Viability (%): 55 mM aryl-aldonamide, post-thaw; for cell viability: stored at −196° C. for 48 hours
Experimental: Tf1-α cells were cultured to a final concentration of 2-3×10^6 cells/mL. Three million cells were transferred into cryovials and media were removed by aspiration after centrifugation at 1000 rpm for five minutes. 100 μL of RPMI media (10% FBS) supplemented with the cryopreservative of interest was added to the cryovial and vortexed. The cryovials were cooled at a rate of −1° C./min for 24 hours to −80° C. before being transferred to a liquid nitrogen dewar for storage until analysis.
Cryovials were thawed under fast thaw conditions (submerged in 37° C. water bath). The cells were then diluted to a concentration of 3×10^6 cells/mL with 1× Annexin V Binding Buffer and a cell count was obtained by hemacytometer (to obtain cell recovery). A 400 μL aliquot was transferred to a flow cytommetry tube. 10 μL of each Annexin V FITC (for apoptosis) and 7-AAD (for viability) dyes were added, the tube was vortexed and allowed to incubate in the dark for 15 minutes. The solution was diluted to 1 mL with 1× Annexin V Binding Buffer, vortexed and analyzed by flow cytommetry. […] With 2% DMSO, cell viability reached about 45%, and with 10% DMSO, cell viability reached around 78%.

[2] = tested on: CD34+ cells (hematopoietic stem cells); assay: colony forming unit (CFU) assay after cryopreservation of umbilical cord blood; format: cell-based, human; conditions: for combined results of the CFU assays vs control: UCB units 26, 27, 28 combined, FIG. 41; for BFU-E / CFU-G / CFU-GEMM / CFU-GM / CFU-M / Total Number of Colonies: post-thaw, 14 days in Methocult
Experimental: (§1) Aliquots of LC (50,000 CD34^+ cells) are added to 2.0 mL cryovials. For each experiment, four cryovials are prepared (two for post-thaw viability analysis using flow cytometry and two for functionality analysis using the colony forming unit assay). Cryovials are kept on ice until placement in −80° C. freezer. Cryovials are centrifuged at 400 g and 10° C. for 5 minutes to pellet cells. After centrifugation, the time taken until placement in −80° C. freezer should not exceed 10 minutes. Supernatant is removed by aspiration or by decanting, but preferably by aspiration. Plasma (volume depends on desired cryosolution concentration) is added and cells are suspended by pipetting. Pre-made cryosolutions (see Cryosolutions) are added (volume depends on desired cryosolution concentration) and mixed by pipetting. Cryovials are placed in a Mr. Frosty® rate controlled freezing container which is then placed in a −80° C. freezer for 24 hours. By placing the cryovials in the freezing container, their contents undergo a cooling rate of about −1° C. per minute. After 24 hours, the cryovials are transferred to a liquid nitrogen dewar for storage until thawed for analysis.
(§2) Cryosolutions are prepared in distilled autoclaved water supplemented with 0.9% saline and 5% dextran for cryopreservation experiments and diluted with different volumes of plasma in cryovials depending on desired concentration of ice recrystallization inhibitor. N-(4-chlorophenyl)-D-gluconamide (4a) and N-(2-fluorophenyl)-D-gluconamide (2a) are prepared at 25 mM and N-(4-methoxyphenyl)-D-gluconamide (3a) and N-(2,6-difluorobenzyl)-D-gluconamide (1b) are prepared at 55 mM. 100, 50, 33 or 20 μL of 25 mM N-(4-chlorophenyl)-D-gluconamide (4a) or N-(2-fluorophenyl)-D-gluconamide (2a) are added to cryovials containing 50,000 CD34^+ cells suspended in 0, 50, 67, or 80 μL of plasma, respectively, for a final IRI concentration of 25, 12.5, 8 or 5 mM, respectively. 100, 50, 33 or 20 μL of 55 mM N-(4-methoxyphenyl)-D-gluconamide (3a) or N-(2,6-difluorobenzyl)-D-gluconamide (1b) are added to cryovials containing 50,000 CD34^+ cells suspended in 0, 50, 67, or 80 μL of plasma, respectively, for a final IRI concentration of […], 18 or 11 mM, respectively.
Cryovials are thawed in a 37° C. water bath and diluted with 900 μL of IMDM (10% FBS, 1% penicillin/streptomycin). Cryovials are placed on ice until washed. Samples are mixed by pipetting and 80 μL is transferred to a 15 mL Falcon tube. 5 mL of Iscove's Modified Dulbecco's Medium (IMDM) supplemented with 10% fetal bovine serum (FBS) is added and this mixture is centrifuged at 1100 rpm for six minutes to yield a cell pellet and a supernatant. The supernatant is removed by aspiration and the cell pellet is resuspended in 1 mL IMDM (2% FBS) to form a suspension. The suspension is mixed by pipetting. 150 μL of this cell suspension is added to 3 mL Methocult™ media and plating is performed in accordance with manufacturer's instruction. The suspension with Methocult™ media is mixed adequately by vortexing for 20 seconds. The contents are allowed to settle and bubbles are allowed to subside before plating (approximately 5-10 minutes). Using a 3 mL syringe and 16 gauge blunt needles, 2.5 mL of the cell suspension in Methocult™ is taken from the bottom. 1 mL of this 2.5 mL is added to two 5 mL cell culture dishes. The dishes are swirled to ensure cells in Methocult™ medium coat the entire bottom of the dish. A third 5 mL dish is prepared to contain distilled autoclaved water without a lid. These three 5 mL dishes are placed in a 100 mL plate; two 5 mL dishes contain 1 mL of cell suspension in Methocult™ medium with the lid on and one containing distilled autoclaved water with the lid off. The lid is placed on the 100 mL plate and stored in a 37° C. incubator (5% CO2) for two weeks.

[3] = splat cooling ice recrystallization inhibition (IRI) assay
Experimental: In this assay, the area of ice crystals are measured after a 30 minute annealing time at −6.4° C. and compared to a positive control for ice recrystallization resulting in a quantitative measurement of the mean ice grain size. For a positive control, a phosphate buffered saline (PBS) solution was utilized. All samples were normalized to the PBS positive control. The ice recrystallization inhibition activity of the carbohydrate-based non-ionic surfactants n-octyl-β-D-glucopyranoside (compound 3) and n-octyl-β-D-galactopyranoside (compound 4) is shown in FIG. 1.
In this assay, the area of ice crystals are measured after a 30 minute annealing time at −6.4° C. and compared to a positive control for ice recrystallization resulting in a quantitative measurement of the mean ice grain size. For a positive control, a PBS solution was utilized. All samples were normalized to the PBS positive control.
N-aryl-D-gluconamides (3a), (2a), (4a), and (1b) are a class of low molecular weight carbohydrate-based compounds. The ice recrystallization inhibition activity of (3a), (2a), (4a), and (1b) was assessed using a “splat cooling” assay. In this assay, the area of ice crystals are measured after a 30 minutes annealing time at −6.4° C. and compared to a positive control for ice recrystallization resulting in a quantitative measurement of the mean ice grain size. For a positive control, PBS was utilized. All samples were normalized to the PBS positive control.

[4] = tested on: CD34+ cells (hematopoietic stem cells); assay: post-thaw viability of CD34+ cells of cryopreserved umbilical cord blood, flow cytometry; format: cell-based, human
Experimental: Whole umbilical cord blood (UCB) should be stored at room temperature (15-25° C.) and processed within 48 hrs of collection. UCB is removed from collection bag and spilt in equal parts into 50 mL Falcon tubes. No more than 25 mL of UCB should be added per Falcon tube. UCB is diluted with 6% hetastarch (Hespan) to obtain a final concentration of 1% hetastarch and incubated for 10 minutes at room temperature. The tubes are then centrifuged at 50 g at 10° C. for 15-20 minutes, depending on volume. The centrifuge should not brake to stop. For total volumes of 30 mL, 15-17 minute centrifugation is utilized and for total volumes of 35 mL, 17-20 minute centrifugation is utilized. The supernatant and buffy coat (plasma and leukocytes) are removed carefully (not collecting RBCs) from the tubes and collected into new 50 mL Falcon tubes. These tubes are centrifuged at 400 g and 10° C. for 10 mins to pellet cells. The centrifuge brake can now be utilized. Plasma is removed and kept in new 50 mL Falcon tubes on ice. The cell pellets resuspended and combined in plasma to a total volume of 20 mL to generate leukocyte concentrate (LC). The LC is kept on ice for the duration of its use. Total mononuclear (CD45^+) and CD34^+ (hematopoetic stem cells) cell concentrations and viability are determined by flow cytometry (see Flow Cytometry procedure below). Aliquots of LC (50,000 CD34^+ cells) are utilized for cryopreservation experiments (see Cryopreservation Experiments procedure below).
as §1, §2
Total mononuclear cell (CD45+) and progenitor cell (CD34+) viability is assessed by flow cytometry using International Society of Hematotherapy and Graft Engineering (ISHAGE) guidelines (J. Hematother. Stem Cell Res. 1996, 5, 213-226). […]

[5] = 10% DMSO (⅕ dilution with plasma), UCB Unit 27
[6] = 10% DMSO (⅕ dilution with plasma), UCB Unit 28
[7] = 22 mM in PBS, 30 min annealing at −6.4° C.

Structure (SMILES): O=C(Nc1ccccc1)[C@H](O)[C@@H](O)[C@H](O)[C@H](O)CO [(1a), phenyl-aldonamide]
- Apoptosis (%) ([1]; 0% DMSO): 0%
- Cell Viability (%) ([1]; 0% DMSO): 0.07%
- Apoptosis (%) ([1]; 2% DMSO): 0.9%
- Cell Viability (%) ([1]; 2% DMSO): 34.71%
- Apoptosis (%) ([1]; 10% DMSO): 4.22%
- Cell Viability (%) ([1]; 10% DMSO): 68.82%

Structure (SMILES): O=C(NCc1cc(F)cc(F)c1)[C@H](O)[C@@H](O)[C@H](O)[C@H](O)CO [(2b), N-(3,5-difluorobenzyl)-D-gluconamide]
- combined results of the CFU assays vs control [2]: did not perform particularly well

Structure (SMILES): O=C(Nc1ccccc1Cl)[C@H](O)[C@@H](O)[C@H](O)[C@H](O)CO [(5a), N-(2-chlorophenyl)-D-gluconamide]
- BFU-E ([2]; 5 mM IRI, 10% DMSO): 19.2
- CFU-G ([2]; 5 mM IRI, 10% DMSO): 5.0
- CFU-GEMM ([2]; 5 mM IRI, 10% DMSO): 2.3
- CFU-GM ([2]; 5 mM IRI, 10% DMSO): 5.2
- CFU-M ([2]; 5 mM IRI, 10% DMSO): 1.0
- Total Number of Colonies ([2]; 5 mM IRI, 10% DMSO): 32.7
- BFU-E ([2]; 8 mM IRI, 10% DMSO): 18.0
- CFU-G ([2]; 8 mM IRI, 10% DMSO): 5.0
- CFU-GEMM ([2]; 8 mM IRI, 10% DMSO): 2.0
- CFU-GM ([2]; 8 mM IRI, 10% DMSO): 4.0
- CFU-M ([2]; 8 mM IRI, 10% DMSO): 2.0
- Total Number of Colonies ([2]; 8 mM IRI, 10% DMSO): 31.0
- BFU-E ([2]; 12.5 mM IRI, 10% DMSO): 27.0
- CFU-G ([2]; 12.5 mM IRI, 10% DMSO): 8.0
- CFU-GEMM ([2]; 12.5 mM IRI, 10% DMSO): 4.5
- CFU-GM ([2]; 12.5 mM IRI, 10% DMSO): 6.5
- CFU-M ([2]; 12.5 mM IRI, 10% DMSO): 1.5
- Total Number of Colonies ([2]; 12.5 mM IRI, 10% DMSO): 47.5
- fold increase in functionality relative to the control ([2]; 12.5 mM vs DMSO only): 1.5 fold
- BFU-E ([2]; 25 mM IRI, 10% DMSO): 20.5
- CFU-G ([2]; 25 mM IRI, 10% DMSO): 7.0
- CFU-GEMM ([2]; 25 mM IRI, 10% DMSO): 1.0
- CFU-GM ([2]; 25 mM IRI, 10% DMSO): 11.0
- CFU-M ([2]; 25 mM IRI, 10% DMSO): 2.5
- Total Number of Colonies ([2]; 25 mM IRI, 10% DMSO): 42.0
- combined results of the CFU assays vs control [2]: did not perform particularly well

Structure (SMILES): O=C(Nc1ccc(F)cc1)[C@H](O)[C@@H](O)[C@H](O)[C@H](O)CO [(6a), N-(4-Fluorophenyl)-D-gluconamide]
- combined results of the CFU assays vs control [2]: did not perform particularly well

Structure (SMILES): COc1ccccc1NC(=O)[C@H](O)[C@@H](O)[C@H](O)[C@H](O)CO [(7a), N-(2-methoxyphenyl)-D-gluconamide]
- combined results of the CFU assays vs control [2]: did not perform particularly well

Structure (SMILES): OC[C@@H](O)[C@H](O)[C@H](O)[C@@H](O)CO [D-dulcitol, reference compound]
- ice recrystallization inhibition activity ([3]; concentration not given): decreased activity relative to the pyranose forms

Structure (SMILES): OC[C@@H](O)[C@@H](O)[C@H](O)[C@@H](O)CO [D-sorbitol, reference compound]
- ice recrystallization inhibition activity ([3]; concentration not given): decreased activity relative to the pyranose forms

Structure (SMILES): C[S+](C)[O-] [DMSO, Dimethyl sulfoxide, reference compound]
- Post-Thaw Viab. ([4]; 10% DMSO (no plasma)): 83%
- Post-Thaw Viab. [4, 5]: 88%
- Post-Thaw Viab. [4, 6]: 87%
- cell viability ([1]; 2% DMSO alone): about 45%
- cell viability ([1]; 10% DMSO alone): around 78%
- Tot. No. Colonies ([2]; 10% DMSO (no plasma)): 47 and 34
- Tot. No. Colonies [2, 5]: 56 and 35
- Tot. No. Colonies [2, 6]: 36
- BFU-E ([2]; 10% DMSO only, IRI None): 15.6
- CFU-G ([2]; 10% DMSO only, IRI None): 5.1
- CFU-GEMM ([2]; 10% DMSO only, IRI None): 2.8
- CFU-GM ([2]; 10% DMSO only, IRI None): 6.8
- CFU-M ([2]; 10% DMSO only, IRI None): 0.7
- Total Number of Colonies ([2]; 10% DMSO only, IRI None): 31
- Tot. No. Colonies, AVG ([2]; average of control solutions): 28

Structure (SMILES): CCCCCCCCO[C@@H]1OC(CO)[C@@H](O)[C@H](O)C1O (stereo partly drawn) [compound 3, n-octyl-β-D-glucopyranoside]
- ice recrystallization inhibition activity [3, 7]: identical to that of D-glucose
- ice recrystallization inhibition activity ([3]; 44 mM in PBS): still identical to that of the 22 mM D-glucose

Structure (SMILES): CCCCCCCCO[C@@H]1OC(CO)[C@H](O)[C@H](O)C1O (stereo partly drawn) [compound 4, n-octyl-β-D-galactopyranoside]
- ice recrystallization inhibition activity ([3]; 11 mM in PBS): significantly better than 22 mM D-galactose
- ice recrystallization inhibition activity [3, 7]: significantly better than 22 mM D-galactose; also recorded: potent
- ice recrystallization inhibition activity ([3]; 44 mM in PBS): significantly better than 22 mM D-galactose
